Test results as given in PubChem BioAssay (NCI).
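Where inhibition never reached the appropriate level, the endpoint shown equals the highest concentration tested. Otherwise, values were interpolated linearly from a five-concentration, 48-hour dose response in 96-well plates. GI50 marks 50% less growth. TGI denotes the concentration required for complete inhibition of growth.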

Assays:
Assay in all cases: NCI-60 cell line screen, 48 h
RXF 393 renal = system: RXF 393 renal
HS 578T breast = system: HS 578T breast
IGROV1 ovarian = system: IGROV1 ovarian
SF-295 CNS = system: SF-295 CNS
HCT-116 colon = system: HCT-116 colon
U251 CNS = system: U251 CNS
OVCAR-8 ovarian = system: OVCAR-8 ovarian
A498 renal = system: A498 renal
DU-145 prostate = system: DU-145 prostate
NCI-H460 lung = system: NCI-H460 lung
OVCAR-5 ovarian = system: OVCAR-5 ovarian
UO-31 renal = system: UO-31 renal
HL-60(TB) leukemia = system: HL-60(TB) leukemia
A549 NSCLC = system: A549 NSCLC
HT29 colon = system: HT29 colon
TK-10 renal = system: TK-10 renal
CAKI-1 renal = system: CAKI-1 renal
COLO 205 colon = system: COLO 205 colon
OVCAR-3 ovarian = system: OVCAR-3 ovarian
SK-MEL-2 melanoma = system: SK-MEL-2 melanoma
SK-OV-3 ovarian = system: SK-OV-3 ovarian
MDA-MB-231 breast = system: MDA-MB-231 breast
SN12C renal = system: SN12C renal
K-562 leukemia = system: K-562 leukemia
BT-549 breast = system: BT-549 breast
UACC-62 melanoma = system: UACC-62 melanoma
MDA-MB-435 = system: MDA-MB-435
KM12 colon = system: KM12 colon
MOLT-4 leukemia = system: MOLT-4 leukemia
786-0 renal = system: 786-0 renal
ACHN renal = system: ACHN renal
HOP-92 NSCLC = system: HOP-92 NSCLC
SK-MEL-5 melanoma = system: SK-MEL-5 melanoma
UACC-257 melanoma = system: UACC-257 melanoma
MALME-3M melanoma = system: MALME-3M melanoma
CCRF-CEM leukemia = system: CCRF-CEM leukemia
SW-620 colon = system: SW-620 colon
HOP-62 NSCLC = system: HOP-62 NSCLC
SNB-75 CNS = system: SNB-75 CNS
EKVX NSCLC = system: EKVX NSCLC
OVCAR-4 ovarian = system: OVCAR-4 ovarian
SK-MEL-28 melanoma = system: SK-MEL-28 melanoma
M14 melanoma = system: M14 melanoma
SF-539 CNS = system: SF-539 CNS
HCT-15 colon = system: HCT-15 colon
NCI-H226 lung = system: NCI-H226 lung

## O=C(O)C1CC[N-]CC1.O=C(O)C1CC[N-]CC1.[Cl][Pt+2]([Cl])([Cl])[Cl]
RXF 393 renal
  GI50: 34200 nM

## OC(c1cc(-c2ccc(C(F)(F)F)cc2)nc(-c2ccc(C(F)(F)F)cc2)c1)C1CCCCN1 (stereo unspecified)
HS 578T breast
  GI50: 1470 nM
  TGI: 3200 nM
IGROV1 ovarian
  GI50: 1830 nM
  TGI: 3670 nM
SF-295 CNS
  GI50: 1750 nM
  TGI: 3330 nM
HCT-116 colon
  GI50: 1660 nM
  TGI: 3180 nM
U251 CNS
  GI50: 1710 nM
  TGI: 3320 nM
OVCAR-8 ovarian
  GI50: 1470 nM
  TGI: 3100 nM
A498 renal
  GI50: 1560 nM
  TGI: 2960 nM
DU-145 prostate
  GI50: 1780 nM
  TGI: 3160 nM
NCI-H460 lung
  GI50: 1620 nM
  TGI: 3080 nM
OVCAR-5 ovarian
  GI50: 1580 nM
  TGI: 3060 nM
UO-31 renal
  GI50: 1560 nM
  TGI: 3300 nM
HL-60(TB) leukemia
  GI50: 2050 nM
  TGI: 3880 nM
A549 NSCLC
  GI50: 1720 nM
  TGI: 3280 nM
HT29 colon
  GI50: 1620 nM
  TGI: 3090 nM
TK-10 renal
  GI50: 1820 nM
  TGI: 3280 nM
CAKI-1 renal
  GI50: 1890 nM
  TGI: 3790 nM
COLO 205 colon
  GI50: 893 nM
  TGI: 2100 nM
OVCAR-3 ovarian
  GI50: 1780 nM
  TGI: 3250 nM

## OCCCCCNCc1cc2cc3c(cc2c2cc(OCc4ccccc4)ccc12)OCO3
SK-MEL-2 melanoma
  GI50: 1740 nM
  TGI: 3240 nM
SK-OV-3 ovarian
  GI50: 3020 nM
  TGI: 7940 nM
MDA-MB-231 breast
  GI50: 1300 nM
  TGI: 2560 nM
SN12C renal
  GI50: 3400 nM
  TGI: 13400 nM
HS 578T breast
  GI50: 1790 nM
  TGI: 3560 nM
K-562 leukemia
  GI50: 1680 nM
  TGI: 4110 nM
SF-295 CNS
  GI50: 1590 nM
  TGI: 3000 nM
HCT-116 colon
  GI50: 1460 nM
  TGI: 2810 nM
BT-549 breast
  GI50: 1620 nM
  TGI: 2980 nM
UACC-62 melanoma
  GI50: 1710 nM
  TGI: 3080 nM
U251 CNS
  GI50: 1650 nM
  TGI: 3010 nM
MDA-MB-435
  GI50: 1660 nM
  TGI: 3020 nM
OVCAR-8 ovarian
  GI50: 1480 nM
  TGI: 2800 nM
KM12 colon
  GI50: 1620 nM
  TGI: 2970 nM
MOLT-4 leukemia
  GI50: 1410 nM
  TGI: 4550 nM
786-0 renal
  GI50: 1610 nM
  TGI: 2960 nM
ACHN renal
  GI50: 1580 nM
  TGI: 2930 nM
HOP-92 NSCLC
  GI50: 1230 nM
  TGI: 2840 nM
SK-MEL-5 melanoma
  GI50: 1480 nM
  TGI: 2800 nM
A498 renal
  GI50: 3570 nM
  TGI: 14200 nM
UACC-257 melanoma
  GI50: 1630 nM
  TGI: 3150 nM
DU-145 prostate
  GI50: 1540 nM
  TGI: 2880 nM
MALME-3M melanoma
  GI50: 1660 nM
  TGI: 3100 nM
CCRF-CEM leukemia
  GI50: 2520 nM
  TGI: 6110 nM
SW-620 colon
  GI50: 1390 nM
  TGI: 2690 nM
HOP-62 NSCLC
  GI50: 1720 nM
  TGI: 3230 nM
SNB-75 CNS
  GI50: 1720 nM
  TGI: 3090 nM
EKVX NSCLC
  GI50: 1750 nM
  TGI: 3280 nM
OVCAR-4 ovarian
  GI50: 1870 nM
  TGI: 3590 nM
SK-MEL-28 melanoma
  GI50: 1820 nM
  TGI: 3230 nM
UO-31 renal
  GI50: 1660 nM
  TGI: 3270 nM
HL-60(TB) leukemia
  GI50: 1520 nM
  TGI: 3650 nM
M14 melanoma
  GI50: 1940 nM
  TGI: 3450 nM
SF-539 CNS
  GI50: 1640 nM
  TGI: 3000 nM
HCT-15 colon
  GI50: 1590 nM
  TGI: 3050 nM
NCI-H226 lung
  GI50: 1850 nM
  TGI: 3410 nM
A549 NSCLC
  GI50: 1550 nM
  TGI: 2890 nM
HT29 colon
  GI50: 1500 nM
  TGI: 3000 nM
TK-10 renal
  GI50: 1550 nM
  TGI: 2950 nM
RXF 393 renal
  GI50: 1040 nM
  TGI: 2200 nM
CAKI-1 renal
  GI50: 1770 nM
  TGI: 3740 nM
OVCAR-3 ovarian
  GI50: 1680 nM
  TGI: 3140 nM
